These results are taken from paper PMC3032881 (Molecular Immunology, 2011).

Peptide text beside a SMILES is read from it.

Usually EC50 stands for the midpoint of the concentration-response curve. A low value points to an effect from little substance.

Assay [1] deals with HLA A*0201 on TAP deficient T2 cells (Homo sapiens, UniProt P04439, D140Y/D185E/D98H/E176V/E277Q/G131W/G231S/I119V/I121R/I166T/I218V/L300P/L318F/N151K/N90K/P208A/P217A/Q86G/Q94H/R138H/R169H/T345S). The assay is described as follows: T2-binding assay (cell surface pMHCI stabilization, FACS). It is filed as cell-based.
For assay [2], the target named is T1, HLA A*0201 (soluble recombinant pMHCI) (Homo sapiens, UniProt P04439, D140Y/D185E/D98H/E176V/E277Q/G131W/G231S/I119V/I121R/I166T/I218V/L300P/L318F/N151K/N90K/P208A/P217A/Q86G/Q94H/R138H/R169H/T345S).
T1 construct: made in house
The experiment in a line: Real time SPR pMHC stability assay. In kind it is binding. To be noted: pMHCI half-life converted from Langmuir dissociation analysis; BIAcore 3000, CM5 chip, ∼500 RUs, 10 μl/min, 15,000 s. Background: SPR reads the build-up and loss of mass on a sensor chip optically.

`CC[C@H](C)[C@H](NC(=O)[C@@H](N)C(C)C)C(=O)N[C@@H](CO)C(=O)N[C@@H](CC(N)=O)C(=O)N[C@@H](CC(=O)O)C(=O)N[C@H](C(=O)N[C@@H](CS)C(=O)N[C@@H](C)C(=O)N[C@@H](CCC(N)=O)C(=O)N[C@H](C(=O)O)C(C)C)C(C)C` (H-VISNDVCAQV-OH) showed an EC50 in assay [1] of 50 µM. The same measure, in the same setting: under `CC[C@H](C)[C@H](NC(=O)[C@H](Cc1c[nH]c2ccccc12)NC(=O)[C@H](CCSC)NC(=O)[C@H](CC(C)C)NC(=O)[C@H](CC(C)C)NC(=O)[C@@H](N)CO)C(=O)N[C@H](C(=O)N[C@@H](CCC(N)=O)C(=O)N[C@@H](CC(C)C)C(=O)O)[C@@H](C)O` stands 43.2 µM; under `CC(C)C[C@H](NC(=O)[C@@H](N)C(C)C)C(=O)N[C@@H](CO)C(=O)N[C@@H](CC(N)=O)C(=O)N[C@@H](CC(=O)O)C(=O)N[C@H](C(=O)N[C@@H](CS)C(=O)N[C@@H](C)C(=O)N[C@@H](CCC(N)=O)C(=O)N[C@H](C(=O)O)C(C)C)C(C)C`, 23.9 µM.

As for `CC(C)C[C@H](NC(=O)[C@@H](N)Cc1ccc(O)cc1)C(=O)N[C@@H](CCC(=O)O)C(=O)N1CCC[C@H]1C(=O)NCC(=O)N1CCC[C@H]1C(=O)N[C@H](C(=O)N[C@@H](C)C(=O)O)C(C)C` (H-YLEPGPVA-OH; N-terminus and C-terminus assumed), the “Half-life” value in assay [2] was determined as 5.8 h.
